Measured values from patent US11136301B2, “Broad spectrum antiviral compounds and uses thereof” (The Regents Of The University Of California, priority 2015, dated 2021).
Like-named read-outs stand apart in the source and are kept apart here.

Tested on: wild-type HIV-1 (HIV-1LAI) in H9 cells (non-permissive)
Assay: microbe, parasite or virus in culture
Type: cell-based
[1] = Human immunodeficiency virus 1, H9, read-out: Antiviral activity (IC50 μM) H9 cells, Table 5, wild-type HIV-1, non-permissive H9 cells
[2] = Human immunodeficiency virus 1, H9, read-out: Antiviral activity (IC50 μM) H9 cells, Table 8, wild-type HIV-1, non-permissive H9 cells
[3] = Human immunodeficiency virus 1, H9, read-out: Antiviral activity (IC50 μM) H9 cells, wild-type HIV-1 (HIV-1LAI), H9 cells (non-permissive), RT activity in culture supernatants, compounds 1 to 50 μM
[4] = read-out: Antiviral activity (IC50 μM) H9, Table 2, wild-type HIV-1, non-permissive H9 cells
[5] = read-out: Antiviral activity (IC50 μM) H9 cells, Table 5, wild-type HIV-1, non-permissive H9 cells
[6] = read-out: Antiviral activity (IC50 μM) H9 cells, Table 8, wild-type HIV-1, non-permissive H9 cells
[7] = read-out: Antiviral activity (IC50 μM) H9 cells, wild-type HIV-1 (HIV-1LAI), H9 cells (non-permissive), RT activity in culture supernatants, compounds 1 to 50 μM

| Structure (SMILES) | IC50 [1] [µM] | IC50 [2] [µM] | IC50 [3] [µM] | IC50 [5] [µM] | IC50 [6] [µM] | IC50 [7] [µM] | also measured |
| --- | --- | --- | --- | --- | --- | --- | --- |
| COc1cccc(OC)c1-n1cc(-c2ccccc2S(=O)(=O)c2ccc(C(F)(F)F)cc2)nn1 [Compound 6dy, 1-(2,6-Dimethoxyphenyl)-4-(2-((4-(trifluoromethyl)phenyl)sulfonyl)phenyl)-1H-1,2,3-triazole] | > 50 | > 50 | > 50 | – | – | – | – |
| COc1cccc(-n2cc(-c3ccccc3S(=O)(=O)c3ccc(C(=O)O)cc3)nn2)c1OC [Compound 3gy, 2-Hydroxy-N,N,N-trimethylethanaminium 4-((2-(1-(2,3-dimethoxyphenyl)-1H-1,2,3-triazol-4-yl)phenyl)sulfonyl)benzoate] | – | – | – | > 50 | > 50 | > 50 | IC50 [4]: > 50 µM |
| COc1ccc(OC)c(-n2cc(-c3ccccc3Sc3ccc(C(=O)O)cc3)nn2)c1 [Compound 5gx, 2-Hydroxy-N,N,N-trimethylethanaminium 4-((2-(1-(2,5-dimethoxyphenyl)-1H-1,2,3-triazol-4-yl)phenyl)thio)benzoate] | – | – | – | > 50 | > 50 | > 50 | – |
| COc1cccc(OC)c1-n1cc(-c2ccccc2Sc2ccc(N)cc2)nn1 [Compound 6ex, 4-((2-(1-(2,6-Dimethoxyphenyl)-1H-1,2,3-triazol-4-yl)phenyl)thio)amine] | 1.5 | 1.5 | 1.5 | – | – | – | IC50 (Human immunodeficiency virus 1, H9, read-out: Antiviral activity (IC50 μM) H9 Cells, Table 4, wild-type HIV-1, non-permissive H9 cells): 1.5 µM; IC50 (Human immunodeficiency virus 1, H9, read-out: Antiviral activity (IC50 μM) H9 Cells, Table 7, wild-type HIV-1, non-permissive H9 cells): 1.5 µM; IC50 (Human immunodeficiency virus 1, H9, read-out: IC50, anti-HIV-1 activity, non-permissive H9 cells): 1 to 3 µM |
| COc1cccc(-n2cc(-c3ccccc3Sc3ccc(N)cc3)nn2)c1OC [Compound 3ex, 4-((2-(1-(2,3-Dimethoxyphenyl)-1H-1,2,3-triazol-4-yl)phenyl)thio)aniline] | 5 | 5 | 5 | – | – | – | – |
| COC(=O)c1ccc(S(=O)(=O)c2ccccc2-c2cn(-c3c(F)cccc3OC)nn2)cc1 [Compound 7by, Methyl 4-((2-(1-(2-fluoro-6-methoxyphenyl)-1H-1,2,3-triazol-4-yl)phenyl)sulfonyl)benzoate] | > 50 | > 50 | > 50 | – | – | – | – |
| COc1ccc(-n2cc(-c3ccccc3Sc3ccc(N)cc3)nn2)c(OC)c1 [Compound 4ex, 4-((2-(1-(2,4-Dimethoxyphenyl)-1H-1,2,3-triazol-4-yl)phenyl)thio)aniline] | > 50 | > 50 | > 50 | – | – | – | – |
| COc1ccc(Sc2ccccc2-c2cn(-c3c(OC)cccc3OC)nn2)cc1 [Compound 6cx, 1-(2,6-Dimethoxyphenyl)-4-(2-((4-methoxyphenyl)thio)phenyl)-1H-1,2,3-triazole] | > 50 | > 50 | > 50 | – | – | – | – |
| COc1ccc(-n2cc(-c3ccccc3Sc3ccc(C(=O)O)cc3)nn2)c(OC)c1 [Compound 4gx, 2-Hydroxy-N,N,N-trimethylethanaminium 4-((2-(1-(2,4-dimethoxyphenyl)-1H-1,2,3-triazol-4-yl)phenyl)thio)benzoate] | – | – | – | > 50 | > 50 | > 50 | – |
| COc1cccc(-n2cc(-c3ccccc3Sc3ccc(C(=O)O)cc3)nn2)c1OC [Compound 3gx, 2-Hydroxy-N,N,N-trimethylethanaminium 4-((2-(1-(2,3-dimethoxyphenyl)-1H-1,2,3-triazol-4-yl)phenyl)thio)benzoate] | – | – | – | 4.3 | 4.3 | 4.3 | IC50 [4]: 4.3 µM; IC50 (read-out: Antiviral activity (IC50 μM) H9 Cells, Table 4, wild-type HIV-1, non-permissive H9 cells): 4.3 µM; IC50 (read-out: Antiviral activity (IC50 μM) H9 Cells, Table 7, wild-type HIV-1, non-permissive H9 cells): 4.3 µM |
| COc1cccc(F)c1-n1cc(-c2ccccc2Sc2ccc(C(F)(F)F)cc2)nn1 [Compound 7dx, 1-(2-Fluoro-6-methoxyphenyl)-4-(2-((4-(trifluoromethyl)phenyl)thio)phenyl)-1H-1,2,3-triazole] | 10 | 10 | 10 | – | – | – | – |
| COc1cccc(OC)c1-n1cc(-c2ccccc2Sc2ccc([N+](=O)[O-])cc2)nn1 [Compound 6ax, 1-(2,6-Dimethoxyphenyl)-4-(2-((4-nitrophenyl)thio)phenyl)-1H-1,2,3-triazole] | 6.3 | 6.3 | 6.3 | – | – | – | – |
| COc1ccc(Sc2ccccc2-c2cn(-c3c(F)cccc3OC)nn2)cc1 [Compound 7cx, 1-(2-Fluoro-6-methoxyphenyl)-4-(2-((4-methoxyphenyl)thio)phenyl)-1H-1,2,3-triazole] | > 50 | > 50 | > 50 | – | – | – | – |
| COc1ccc(-n2cc(-c3ccccc3Sc3ccc(C(F)(F)F)cc3)nn2)c(OC)c1 [Compound 4dx, 1-(2,4-Dimethoxyphenyl)-4-(2-((4-(trifluoromethyl)phenyl)thio)phenyl)-1H-1,2,3-triazole] | 1.1 | 1.1 | 1.1 | – | – | – | – |
| COc1ccc(-n2cc(-c3ccccc3S(=O)(=O)c3ccc(N)cc3)nn2)c(OC)c1 [Compound 4ey, 4-((2-(1-(2,4-Dimethoxyphenyl)-1H-1,2,3-triazol-4-yl)phenyl)sulfonyl)aniline] | > 50 | > 50 | > 50 | – | – | – | – |
| COc1ccc(Sc2ccccc2-c2cn(-c3ccc(OC)cc3OC)nn2)cc1 [Compound 4cx, 1-(2,4-Dimethoxyphenyl)-4-(2-((4-methoxyphenyl)thio)phenyl)-1H-1,2,3-triazole] | > 50 | > 50 | > 50 | – | – | – | – |
| COc1ccc(OC)c(-n2cc(-c3ccccc3S(=O)(=O)c3ccc(C(F)(F)F)cc3)nn2)c1 [Compound 5dy, 1-(2,5-Dimethoxyphenyl)-4-(2-((4-(trifluoromethyl)phenyl)sulfonyl)phenyl)-1H-1,2,3-triazole] | 4.3 | 4.3 | 4.3 | – | – | – | – |
| COc1cccc(F)c1-n1cc(-c2ccccc2Sc2ccc(C(=O)O)cc2)nn1 [Compound 7gx, 2-Hydroxy-N,N,N-trimethylethanaminium 4-((2-(1-(2-fluoro-6-methoxyphenyl)-1H-1,2,3-triazol-4-yl)phenyl)thio)benzoate] | – | – | – | > 50 | > 50 | > 50 | – |
| COc1ccc(-n2cc(-c3ccccc3Sc3ccc([N+](=O)[O-])cc3)nn2)c(OC)c1 [Compound 4ax, 1-(2,4-Dimethoxyphenyl)-4-(2-((4-nitrophenyl)thio)phenyl)-1H-1,2,3-triazole] | > 50 | > 50 | > 50 | – | – | – | – |
| COc1ccccc1-n1cc(-c2ccccc2Sc2ccc(C(=O)O)cc2)nn1 [Compound 2gx, 2-Hydroxy-N,N,N-trimethylethanaminium 4-((2-(1-(2-methoxyphenyl)-1H-1,2,3-triazol-4-yl)phenyl)thio)benzoate] | – | – | – | > 50 | > 50 | > 50 | IC50 [4]: > 50 µM |
| COc1cccc(OC)c1-n1cc(-c2ccccc2S(=O)(=O)c2ccc(C(=O)O)cc2)nn1 [Compound 6gy, 2-Hydroxy-N,N,N-trimethylethanaminium 4-((2-(1-(2,6-dimethoxyphenyl)-1H-1,2,3-triazol-4-yl)phenyl)sulfonyl)benzoate] | – | – | – | > 50 | > 50 | > 50 | IC50 [4]: > 50 µM |
| COc1ccc(-n2cc(-c3ccccc3S(=O)(=O)c3ccc(C(=O)O)cc3)nn2)c(OC)c1 [Compound 4fy, 4-((2-(1-(2,4-Dimethoxyphenyl)-1H-1,2,3-triazol-4-yl)phenyl)sulfonyl)benzoic Acid] | > 50 | > 50 | > 50 | – | – | – | – |
| COc1ccc(Sc2ccccc2-c2cn(-c3ccccc3OC)nn2)cc1 [Compound 2cx, 1-(2-Methoxyphenyl)-4-(2-((4-methoxyphenyl)thio)phenyl)-1H-1,2,3-triazole] | 13.6 | 13.6 | 13.6 | – | – | – | – |
